The record followed here is US20220370366A1, “TABLETS CONTAINING CILOFEXOR AND PHARMACEUTICALLY ACCEPTABLE CARRIERS” (Gilead Sciences, Inc., priority 2019, published 2022).

The nature of series [1]: Single dose PK (AUCinf) in Phase 1 studies, effect of meal type on Compound 1 exposure and variability. Type of series: in vivo, human. To be noted: for AUC(0-inf): human, in vivo, oral. On the procedure:
Part B (Adaptive Cohorts) is as follows: Based on available safety, pharmacokinetic (“PK”), and/or pharmacodynamic (“PD”) data from Part A, total daily doses for Part B (Cohorts 5 and 8) were chosen between 1 and 600 mg as well as frequency of dosing (once daily or twice a day) and meal conditions for dosing (fasted, low fat, moderate fat, or high fat meal). Once determined, dose level, frequency of dosing, and meal conditions were consistent within a cohort.
Fed State Dosing: Study drug(s) were administered at approximately the same time each day and within 5 minutes of completing a standardized meal. The meal was initiated 30 minutes prior to study drug administration. Subjects fasted until after collection of the 4-hour PK sample, relative to study drug dosing. Meal fat content (low fat, moderate fat, or high fat) was determined based on available data from […] cohorts.
(§1) Treatment A: Single dose of SEL 18 mg (1×18 mg tablet)+Compound 1 30 mg (1×30 mg tablet) coadministered orally in the morning within 5 minutes of completing a high-fat meal Treatment C: Single dose of Compound 1 30 mg (1×30 mg tablet) administered orally in the morning in the fasted state
Treatment I: Single dose of Compound 1 30 mg (1×30 mg tablet) administered orally in the morning within 5 minutes of completing a light meal
(§2) Fasted Administration (Treatment C): Study drug(s) were administered in the morning following an overnight fast (no food or drinks except water for at least 10 hours). Subjects continued to fast until after collection of the 4-hour PK sample, relative to (first) study drug dosing. Additionally, subjects were restricted from water consumption 1 hour before until 2 hours after each study drug dosing, except for the 240 mL given with each study drug administration. Water may be consumed by subjects following the 2-hour blood draw for the remainder of the collection period. A meal (standardized lunch) was provided to subjects after the 4 hour postdose blood draw.
Light Meal Administration (Treatment I): Study drug(s) were administered with food and with 240 mL of water. Following an overnight fast (no food or drinks except water for at least 10 hours), a meal was initiated 30 minutes prior to study drug administration. The dose was administered at or within 5 minutes of the subjects completing (100%) of the provided light meal containing ˜400 kcal with ˜20% of the calories from fat. Subjects fasted for 4 hours after study drug administration. A meal (standardized lunch) was provided to subjects after the 4-hour post-dose blood draw. Additionally, water and other fluids was withheld 1 hour before until 2-hours after dose administration other than the water provided with dosing and beverages provided with the standardized meal (where applicable). Water may be consumed by subjects following the 2-hour blood draw for the remainder of the collection period.
High-Fat Meal Administration (Treatment A): Study drug(s) were administered with food and with 240 mL of water. Following an overnight fast (no food or drinks except water for at least 10 hours), a meal was initiated 30 minutes prior to study drug administration. The dose was administered at or within 5 minutes of the subjects completing (100%) of the provided high-fat meal containing ˜800-1000 kcal with -50% of calories from fat (approximately 150, 250, and 500-600 kcal from protein, carbohydrate, and fat, respectively). Subjects fasted for 4 hours after study drug administration. A meal (standardized lunch) was provided to subjects after the 4-hour post-dose blood draw. Additionally, water and other fluids was withheld 1 hour before until 2 hours after dose administration other than the water provided with dosing and beverages provided with the standardized meal (where applicable). Water may be consumed by subjects following the 2-hour blood draw for the remainder of the collection period.
Cohort 10 (Compound 1 100 mg, formulation 9 in Table 3): […]

A short description of series [2]: Effect of acid-reducing agent (famotidine) on PK of Compound 1 single agent tablet, Cohort 11. The settings on record: for AUC(0-inf): human, in vivo, oral, fasted, N=20. Type of series: in vivo, human. On the procedure:
The objective of Cohort 11 was to assess the effect of gastric acid reducing agents (ARAs) on the PK of Compound 1 single agent tablet using famotidine, a representative H2RA. Compound 1 100 mg strength tablets (as free form equivalent) were used. Famotidine was obtained from a commercially available source.
Treatment J: Single dose of Compound 1 (1×100 mg tablet) administered orally in the morning in the fasted state.
Treatment K: Single dose of Compound 1 (1×100 mg tablet) administered orally in the morning 2 hours after famotidine (FAM) (1×40 mg) in the fasted state.
(§3) Study drug(s) were administered in the morning following an overnight fast (no food or drinks except water for at least 10 hours). Subjects continued to fast until after collection of the 4-hour PK sample, relative to the (first) study drug dosing. Additionally, subjects were restricted from water consumption 1 hour before until 2 hours after each study drug dosing, except for the 240 mL given with each study drug administration. Water was optionally consumed by subjects following the 2-hour blood draw for the remainder of the collection period.

A short description of series [3]: Single dose PK (AUCinf) in Phase 1 studies, effect of drug load on Compound 1 exposure and variability. To be noted: for AUC(0-inf): human, in vivo, oral, fasted, healthy volunteers, read-out: Mean (% CV) Compound 1 AUCinf. The series is classed as in vivo, human.
Excerpt: Part A: prespecified cohorts (Cohorts 1-3): Randomized, partially blind, placebo-controlled, single- and multiple-doses with staggered dose-escalations. 60 unique subjects; 15 per cohort (12 Compound 1, 3 placebo-to-match (“PTM”))
Part A (Single- and Multiple-Ascending Doses, Pre-Specified Cohorts) proceeded in 4 staggered, pre-specified, dose-escalation cohorts and were governed by study specific stopping criteria. Within each cohort, 15 unique subjects were randomized 4:1 to receive blinded Compound 1 (N=12) or PTM (N=3). All study drugs in Part A were administered in a fasted state. Within each cohort, dose escalation from single-dose (Period 1) to multiple-dose (Period 2) were permitted after evaluation of cumulative blinded safety data up to and through Day 3 of the same cohort.
Fasted State Dosing: Study drug(s) were administered at approximately the same time each day following an overnight fast (no food or drinks except water, for at least 10 hours). Subjects continued to fast until after collection of the 2-hour PK sample, relative to study drug dosing.
as §1, §2
Eligible subjects received the following treatment: Single dose of 100 mg Compound 1 (1×100 mg tablet), administered orally in the morning on Day 1 following an overnight fast.
Each dose of study drug was administered in the morning on Day 1 with 240 mL of still (non-carbonated) water following an overnight fast (no food or drinks except water, for at least 10 hours). Subjects continued to fast and were restricted from food intake until after collection of the 4-hour blood draw. Additionally, subjects were restricted from consumption of water or other fluids 1 hour before until 2 hours after dosing, except for the 240 mL given with the study treatment.
Cohort 10 (Compound 1 100 mg, formulation 9 in Table 3):
Treatment F: Single dose of Compound 1 (1×100 mg tablet) administered orally in the morning in the fasted state.
as §3, with “Compound 1 was” for “Study drug(s) were”, “period. A meal (standardized lunch) is provided to subjects after the 4-hour post-dose blood draw.” for “period.”
Single dose pharmacokinetic exposure parameters (AUCinf) of Compound 1 from multiple Phase 1 studies in healthy volunteers which utilized various drug loads of Compound 1 were compared to determine if Compound 1 drug load impacted the variability and/or absolute value of Compound 1 systemic exposure.

The conditions of series [4]: in the drug product, Form I.
Where [5] appears, read: drug loads such as 5% and 8% compared to 20% drug load.

The structures appear in SMILES notation.

On to `O=C(O)c1ccnc(N2CC(O)(c3ccc(OCc4c(-c5c(Cl)cccc5Cl)noc4C4CC4)cc3Cl)C2)c1` [Compound 1, cilofexor], for which the “% GLSM Ratio (90% CI)” value in series [1] (10 mg (5% drug load), AUCinf moderate-fat meal vs fasted) came to 74.9%; in series [1] (30 mg (20% drug load), AUCinf high-fat meal (+ SEL 18 mg) vs fasted) it was 142%; in series [1] (30 mg (20% drug load), AUCinf light-fat meal vs fasted), 37.5%; in series [1] (100 mg (12% drug load), AUCinf high-fat meal vs fasted), 91.9%; in series [1] (100 mg (12% drug load), AUCinf light-fat meal vs fasted), 65.7%; in series [1] (100 mg (20% drug load), AUCinf moderate-fat meal vs fasted) it was 76.6%. For the same compound, the “% GLSM Ratio (90% CI)” value in series [2] (100 mg (12% drug load), AUCinf with famotidine vs alone) is given as 320 (263, 390) %. Further, the “Effect of food on Compound 1 exposure” value was “increasing” in series [1] (high-fat meal); “reducing” in series [1] (light-fat and moderate-fat meals). In addition, the AUC(0-inf) in series [1] (10 mg, 10 mg (5% drug load), fasted, N=12, read-out: Compound 1 AUCinf (% CV) Fasted) stood at 1260 ng·h/mL; in series [1] (10 mg, 10 mg (5% drug load), moderate-fat meal, N=11, read-out: Compound 1 AUCinf (% CV) Fed) it was 924 ng·h/mL; in series [1] (30 mg (20% drug load), high-fat meal, + SEL 18 mg, N=20, read-out: Compound 1 AUCinf (% CV) Fed) it was 1920 ng·h/mL; in series [1] (30 mg, 30 mg (20% drug load), fasted, N=20, read-out: Compound 1 AUCinf (% CV) Fasted), 1870 ng·h/mL; in series [1] (30 mg, 30 mg (20% drug load), light-fat meal, N=30, read-out: Compound 1 AUCinf (% CV) Fed) it was 608 ng·h/mL; in series [1] (100 mg, 100 mg (12% drug load), fasted, N=20, read-out: Compound 1 AUCinf (% CV) Fasted), 7650 ng·h/mL. Further, the AUC(0-inf) turned out to be 5930 ng·h/mL in series [1] (100 mg, 100 mg (12% drug load), high-fat meal, N=20, read-out: Compound 1 AUCinf (% CV) Fed); 4170 ng·h/mL in series [1] (100 mg, 100 mg (12% drug load), light-fat meal, N=20, read-out: Compound 1 AUCinf (% CV) Fed); 7740 ng·h/mL in series [1] (100 mg, 100 mg (20% drug load), fasted, N=12, read-out: Compound 1 AUCinf (% CV) Fasted); 5020 ng·h/mL in series [1] (100 mg, 100 mg (20% drug load), moderate-fat meal, N=12, read-out: Compound 1 AUCinf (% CV) Fed); 13600 ng·h/mL in series [2] (100 mg (12% drug load), 2 hours after famotidine 40 mg, read-out: Compound 1 AUCinf (% CV) with Famotidine (Test)); 4490 ng·h/mL in series [2] (100 mg (12% drug load), read-out: Compound 1 AUCinf (% CV) Alone (Reference)). The AUC(0-inf) worked out at 2470 ng·h/mL in series [3] (30 mg, 30 mg single dose, 5% drug load); 1870 ng·h/mL in series [3] (30 mg, 30 mg single dose, 20% drug load); 7480 ng·h/mL in series [3] (100 mg, 100 mg single dose, 8% drug load); 7650 ng·h/mL in series [3] (100 mg, 100 mg single dose, 12% drug load); 7740 ng·h/mL in series [3] (100 mg, 100 mg single dose, 20% drug load). Besides, the “Variability of Compound 1 exposure” value in series [1] (light-fat meal) is on record as “did not reduce variability”; in series [1] (moderate- and high-fat meals compared to fasted administration, irrespective of % drug load) it was “reduced the variability”; in series [3] (setting [5]), “reduction in variability”. Also, the “Paired comparison of Compound 1 exposure, percent change with high-fat meal” value in series [1] (subjects with low exposure fasted or with light-fat meal vs subjects with high exposure) is recorded as “greater percent increases in exposure”. Besides, the “Bioavailability of Compound 1 with famotidine pre-treatment” value in series [2] (administered two hours after famotidine, 12% drug load) is listed as “increase in bioavailability”. Also, in series [3] (setting [5]), the “Compound 1 exposure” value was “increased Compound 1 exposure”.

`NC(CO)(CO)CO.O=C(O)c1ccnc(N2CC(O)(c3ccc(OCc4c(-c5c(Cl)cccc5Cl)noc4C4CC4)cc3Cl)C2)c1` [tromethamine salt of Compound 1]: the “Chemical and physical stability” value in series [4] was “suitable chemical and physical stability”.
